Test results taken from the CheMixHub viscosity set.

Experiment: xn = mol fraction of the nth substance listed

NC1CCCCC1 + CCCCO
viscosity [mPa·s], 101 kPa
Settings	293.15 K	298.15 K	303.15 K
x1 = 0.0515	2.935	2.587	2.27
x1 = 0.0767	–	2.558	–
x1 = 0.1008	2.906	2.563	2.26
x1 = 0.147	2.891	2.549	2.24
x1 = 0.1574	–	2.555	–
x1 = 0.2004	2.886	2.545	2.236
x1 = 0.2426	–	2.564	–
x1 = 0.2992	2.897	2.547	2.233
x1 = 0.3325	–	2.574	–
x1 = 0.4007	2.882	2.533	2.216
x1 = 0.4277	–	2.549	–
x1 = 0.4475	2.868	2.523	–
x1 = 0.4971	2.829	2.48	2.172
x1 = 0.5285	–	2.481	–
x1 = 0.5421	2.784	2.442	2.142
x1 = 0.6078	2.701	2.387	2.095
x1 = 0.6355	–	2.379	–
x1 = 0.7051	2.558	2.259	1.991
x1 = 0.7493	–	2.248	–
x1 = 0.7941	2.419	2.142	1.893
x1 = 0.846	2.344	2.08	1.842
x1 = 0.8706	–	2.062	–
x1 = 0.8879	2.295	2.039	1.81
x1 = 0.9384	2.216	1.973	1.751

O=C1CCCC1 + CCCCO
303.15 K, 101 kPa
Settings	viscosity [mPa·s]
x1 = 0.101	1.725
x1 = 0.2614	1.339
x1 = 0.4183	1.143
x1 = 0.5813	1.026
x1 = 0.7417	0.974
x1 = 0.899	0.959

NC1CCCCC1 + CCCCOC(C)=O
298.15 K, 101 kPa
Settings	viscosity [mPa·s]
x1 = 0.1151	0.6149
x1 = 0.2265	0.6836
x1 = 0.3342	0.8301
x1 = 0.4385	1.032
x1 = 0.5394	1.253
x1 = 0.6373	1.455
x1 = 0.7321	1.618
x1 = 0.8241	1.734
x1 = 0.9134	1.779

O=C1CCCC1 + CCCCOC(C)=O
viscosity [mPa·s], 101 kPa
Settings	x2 = 0.0703	x2 = 0.1461	x2 = 0.2264	x2 = 0.3112	x2 = 0.4036	x2 = 0.4995	x2 = 0.6079	x2 = 0.7264	x2 = 0.8541
298.15 K	1.044	1	0.957	0.913	0.867	0.826	0.785	0.749	0.714
303.15 K	0.961	0.921	0.881	0.84	0.797	0.758	0.72	0.686	0.654
308.15 K	0.892	0.856	0.82	0.783	0.746	0.71	0.676	0.645	0.618
313.15 K	0.835	0.8	0.766	0.732	0.697	0.662	0.63	0.6	0.575

ClC=C(Cl)Cl + CCCCOCCO
viscosity [mPa·s], 101.33 kPa
Settings	x1 = 0.1147	x1 = 0.2158	x1 = 0.3119	x1 = 0.4264	x1 = 0.5157	x1 = 0.6108	x1 = 0.687	x1 = 0.8076	x1 = 0.9043
303.15 K	2.11	1.821	1.568	1.297	1.111	0.937	0.817	0.671	0.582
313.15 K	1.646	1.451	1.271	1.074	0.934	0.806	0.718	0.608	0.537

NC1CCCCC1 + CCCCOCCO
298.15 K, 101 kPa
Settings	viscosity [mPa·s]
x1 = 0.1169	2.872
x1 = 0.2295	3.006
x1 = 0.338	3.059
x1 = 0.4427	3.069
x1 = 0.5437	3.011
x1 = 0.6412	2.872
x1 = 0.7355	2.697
x1 = 0.8266	2.447
x1 = 0.9147	2.09

ClC=C(Cl)Cl + CCCCOCCOCCO
298.15 K, 101.33 kPa
Settings	viscosity [mPa·s]
x1 = 0.0171	5.12
x2 = 0.0067	0.539
x2 = 0.0185	0.56
x2 = 0.0282	0.577
x2 = 0.0462	0.609
x2 = 0.0623	0.643
x2 = 0.0798	0.68
x2 = 0.0916	0.708
x2 = 0.1239	0.784
x2 = 0.1624	0.89
x2 = 0.2002	0.999
x2 = 0.231	1.097
x2 = 0.268	1.224
x2 = 0.2998	1.339
x2 = 0.3306	1.46
x2 = 0.3622	1.598
x2 = 0.4019	1.789
x2 = 0.4263	1.914
x2 = 0.4614	2.087
x2 = 0.5031	2.305
x2 = 0.54	2.492
x2 = 0.6007	2.81
x2 = 0.6745	3.232
x2 = 0.7406	3.618
x2 = 0.7898	3.928
x2 = 0.8221	4.116
x2 = 0.8567	4.332
x2 = 0.8875	4.525
x2 = 0.9174	4.722
x2 = 0.9489	4.919
x2 = 0.9678	5.031

CCCCC(=O)[O-].CC[NH+](CC)CCO + CCCCn1cc[n+](C)c1.COP(=O)([O-])OC
Settings	viscosity [mPa·s]
298.15 K, 101 kPa, x1 = 0.1018	415.5

CCCCn1cc[n+](C)c1.COP(=O)([O-])OC + CCCCn1cc[n+](C)c1.O=S(=O)([N-]S(=O)(=O)C(F)(F)F)C(F)(F)F
Settings	viscosity [mPa·s]
298.15 K, 100 kPa, x2 = 0.25	432.5
